TGI data for 40 molecules are collected here from PubChem BioAssay (NCI).

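Step 1: Grow cells in 96-well plates. Step 2: Expose to compound for 48 hours at 5 concentrations. Step 3: Interpolate endpoints linearly; if unreached, use highest concentration. At the TGI there is no net growth.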 Where a SMILES comes first, the peptide text is derived from it. [ ]: non-standard residue; d: D form. The star is where a group is joined. Bn2Val = CC(C)[C@@H](C(=O)*)N(Cc1ccccc1)Cc1ccccc1; NHPiperonyl = c1cc2c(cc1CN*)OCO2; NMeV = CN[C@H](C(=O)O)C(C)C; dNMeA = CN[C@H](C)C(=O)O A value given as a limit tells only on which side of the number the result lay.

Test systems include EKVX NSCLC; KM20L2 colon; DMS 273 small cell lung; SNB-78 CNS; M19-MEL melanoma; LXFL 529 NSCLC; HOP-18 NSCLC; DLD-1 colon; XF 498 CNS; DMS 114 small cell lung.
Experiment in all cases: growth of human tumour cells (NCI), 48 h

`N=C1/C(=C/c2ccco2)C(=O)N=C2SC=NN12`: in the test with EKVX NSCLC, the TGI is > 100 µM. Consider `Cc1cccc(-c2cccc(COCc3cccc(-c4cccc(CO)n4)n3)n2)n1`, for which the TGI in the test on EKVX NSCLC was > 50 µM. On to `CC(=O)NC1C(O)C(O)C(CO)OC1n1nc(SCc2ccccc2)c(=O)[nH]c1=O` (centres undefined), for which the TGI with EKVX NSCLC was > 100 µM.

On to `CC(=O)OC(=C(C#N)C#N)c1nccnc1C(=O)O`, for which the TGI in the test on EKVX NSCLC is > 100 µM. In the case of `COc1ccc2c(c1)CC[C@@H]1C2CC[C@]2(C)C(=N\O)/C(=N/O)CC12` (some centres undefined), the TGI stood at 18.5 µM in the test with KM20L2 colon; 26.7 µM in the test with DMS 273 small cell lung; 47.5 µM in the test with SNB-78 CNS; 37 µM in the test with M19-MEL melanoma; 26.8 µM in the test on LXFL 529 NSCLC; 30.4 µM with HOP-18 NSCLC. Besides, the TGI with EKVX NSCLC was 38.9 µM; in the test on DLD-1 colon it was 36.6 µM; with XF 498 CNS, 29.6 µM. For the molecule `O=S(=O)(Nc1nc2ccccc2nc1Nc1cccc2ccccc12)c1ccccc1`, the TGI in the test on EKVX NSCLC is > 100 µM. On the same count and under the same terms, the result for `Cc1cc2nn(C3CCCCO3)nc2cc1C` (centres undefined) reads > 100 µM. The same measure, in the same setting: next, `CC[C@]1(Cc2ccc(OC)c(OC)c2)C=[N+]([O-])O[C@H](OC2CCCCC2c2ccccc2)[C@@H]1OC(C)=O` (some centres undefined): > 100 µM; `C[C@]12CCC(=O)C=C1CC[C@@H]1[C@@H]2CC[C@]2(C)C(=O)/C(=C/c3ccncc3)C[C@@H]12`: 35.6 µM. Same read-out and setting: next, `CCCCC1CCCCCCc2[nH]c(/C=C3\N=C(c4ccc[nH]4)C=C3OC)cc21` (centres undefined): 1.73 µM; `O=C(CC(C(=O)c1cccs1)c1ccsc1)c1ccc(Cl)cc1` (centres undefined): > 100 µM. Regarding `OC1C2CCC3C2CC(C(O)(c2ccccc2)c2ccccc2)C13` (centres undefined), the TGI in the test on EKVX NSCLC is > 100 µM. Still for that read-out and setting: the result for `Cc1cc(C)c(-n2c(C)c(C)c(C#N)c2N)c(C)c1` reads 87.6 µM; that for `CC1(C)[C@H]2CC[C@](C)(C2)[C@]1(S)Cc1ccccn1`, > 100 µM; that for `CCCCCCCCCCCCCCCCC(=O)NCC(=O)NCC(=O)NC(Cc1ccccc1)C(=O)Oc1ccc([N+](=O)[O-])cc1` (centres undefined), > 100 µM.

Molecule `CN(C)CCn1c2c(c3ccccc31)CCc1ccccc1-2` returned a TGI in the test on EKVX NSCLC of 32.4 µM. On the same count and under the same terms, next, `O=S(Nc1ccccc1)c1ccccc1Oc1ccccc1` (centres undefined): 79.1 µM; `CSC1=C(C(=O)N(COCC[Si](C)(C)C)c2ccccc2Br)CCC(C(C)(C)C)C1` (centres undefined): 37.8 µM; `COc1ccc2c(c1)OCC1=C2Oc2ccccc2C1`: > 100 µM. On the same count and under the same terms, the result for `O=C1CC(C(O)C(O)C(O)CO)CC(=O)N1` (centres undefined) reads > 100 µM; that for `CC(=O)Oc1c(C)cc2c(c1C)C(C)(C)CN2C(=O)C(C)(C)C`, > 100 µM. Same read-out and setting: next, `[N-]=[N+]=CC(=O)OC1CCc2ccccc21` (centres undefined): > 100 µM; `CCOC(=O)CC[C@H](NC(=O)c1ccc(CNc2nc3cc(C(F)(F)F)ccc3nc2C(=O)OCC)cc1)C(=O)OCC`: 42.7 µM. In the case of `CC(=O)N(C(=O)CC(=O)NNCc1ccccc1Cl)c1ccc(Cl)cc1`, the TGI with EKVX NSCLC is > 10 µM.

Regarding `O=C1c2ccccc2-c2nc(-c3cccs3)cc3c2c1nc1ccccc13`, the TGI with EKVX NSCLC was > 100 µM. For the molecule `CC(/C=C/C=C\C=C\C=C(/C)C(=O)NC(C)CO)=C\C(C)C(O)/C(C)=C/C(C)CCc1ccccc1` (centres undefined), the TGI in the test with KM20L2 colon worked out at 25.1 µM; with DMS 273 small cell lung, 17.1 µM; with SNB-78 CNS, 25.2 µM; in the test with M19-MEL melanoma it was 19.4 µM; with LXFL 529 NSCLC, 18.7 µM; with HOP-18 NSCLC it was 24.2 µM. In addition, the TGI was > 80.6 µM in the test with EKVX NSCLC, 31.6 µM with DLD-1 colon, 2.47 µM in the test on DMS 114 small cell lung and 22 µM with XF 498 CNS.

For `CCC(C#N)NCc1ccc(CNC(C#N)CC)cc1` (centres undefined), the TGI in the test with EKVX NSCLC is > 100 µM.

Turning to `O=C(O)c1[nH]c(=O)[nH]c(=O)c1CN1CCCCC1`, the TGI with EKVX NSCLC was > 100 µM. Same read-out and setting: next, `COC1CC(=O)C2C(=O)N(c3ccccc3)C(=O)C23C(C(=O)c2ccccc2)=C(C)NC13O` (centres undefined): 59.9 µM. Still for that read-out and setting: the result for `O=c1[nH]c(=S)n(-c2cccc3ccccc23)c(O)c1/C=C1\C=Nc2ccccc21` reads 5.38 µM; that for `C=C1CC(COc2ccc3c(C)c(Cl)c(=O)oc3c2)(c2ccccc2)OC1=O` (centres undefined), 31.2 µM; that for `CCOC(=O)C1C(c2ccco2)C2(C#N)C(=N)OC1(C)C2(C#N)C#N` (centres undefined), > 100 µM. The same measure, in the same setting: the result for `Nc1cc(N2CCOCC2)nc(=O)n1-c1ccccc1` reads > 100 µM; that for `Clc1ccc(C2ON=C(c3ccccc3)N2C23CC4CC(CC(C4)C2)C3)cc1Cl` (centres undefined), > 10 µM; that for `CCOC(=O)c1ccc(OCc2nc3cc(C(F)(F)F)ccc3nc2-c2ccccc2)cc1`, > 100 µM.

In the test on EKVX NSCLC, `COC(=O)c1c(O)ccc2c1c1cc3ccccc3c(O)c1n2Cc1ccccc1Cl` returned a TGI of 87.1 µM. Same read-out and setting: the result for `O=C1CCN=C(NC(=O)C(F)(F)F)N1CCc1c[nH]c2ccccc12` reads > 100 µM; that for `CC(C)[C@H](NC(=O)[C@H](C(C)C)N(Cc1ccccc1)Cc1ccccc1)C(=O)N(C)[C@H](C(=O)N1CCC[C@H]1C(=O)N(C)[C@H](C)C(=O)NCc1ccc2c(c1)OCO2)C(C)C` (Bn2Val-V[NMeV]P[dNMeA]-NHPiperonyl), > 100 µM; that for `CC(C)C(C)C(O)C(O)C(C)C1CCC2C3COC(=O)C4CC(O)C(O)CC4(C)C3CCC12C` (centres undefined), > 100 µM. Consider `CCOc1ccccc1NC(=O)CSc1nnc(Cc2ccccc2)o1`, for which the TGI with KM20L2 colon was > 100 µM; with DMS 273 small cell lung, 60.2 µM; with SNB-78 CNS, > 100 µM; in the test with M19-MEL melanoma, > 100 µM; in the test on LXFL 529 NSCLC, 32.1 µM; in the test with HOP-18 NSCLC it was 54.7 µM. Further, the TGI in the test on DLD-1 colon is 55.4 µM; in the test with DMS 114 small cell lung, 32.4 µM.
